Marks after values point to notes of the source that are not given here.
Key:
[1] = Antiradical activity, trapping of the free radical DPPH; format: biochemical; conditions: fixed concentration of 0.44 mg/ml ascorbic acid eq; tested in combination with Mg(OH)2 in the proportions present in the powder of the invention
[2] = Overall antioxidant power

Question: Which “Antiradical activity (% of trapping of the free radical DPPH)” value [1] does the source give for `O=C1O[C@H]([C@@H](O)CO)C(O)=C1O` [Ascorbic acid] here?
Answer: 70.6* %

Question: What about the Overall antioxidant power [2] of the same compound?
Answer: 34 g/100 g of product in ascorbic acid eq

Source: patent publication US10165789B2, “Acerola powder for use as a substitute for ascorbic acid in the agri-food field” (DIANA NATURALS, priority 2012, dated 2019)
